This is an account of results in US11629135B2 (JUBILANT PRODEL LLC, priority 2017, dated 2023).

Like-named read-outs stand apart in the source and are kept apart here. A value given as a limit tells only on which side of the number the result lay.

As usually defined, the IC50 is the concentration at which inhibition is half-maximal. The term bioavailability denotes the share of a dose that reaches the circulation, judged against a reference dose that is usually intravenous. By AUC(0-inf) is commonly meant the area under the concentration-time curve extrapolated to infinity. Read a low AUC(0-inf) as low exposure. Usually AUC(0-t) stands for the area under the concentration-time curve up to a stated or last time point. Low readings indicate low exposure, high ones high exposure. As a reminder, the Cmax is the peak of the concentration-time curve. For orientation: Tmax means the time at which the peak concentration occurs. As usually defined, the fraction unbound is the share of the substance not bound to proteins or other matrix. The low end stands for extensive binding, the high end for weak binding.

One data set concerns the target T1, CYP 2C9 (Homo sapiens, UniProt P11712).
T1 construct: assessed in human liver microsomes (procured from GIBCO Invitrogen); tissue GIBCO Invitrogen; host or cells: human liver microsomes
Description: CYP inhibition in human liver microsomes (CYP2C9). The data set is classed as in vitro ADME. The conditions noted are these: hydroxylation of diclofenac, read-out: predicted IC50, CYP 2C9. Here is the method: (§1) CYP inhibition potential of compound was assessed in human liver microsomes (procured from GIBCO Invitrogen) against CYP3A4, 2D6, 2C9, 2C19 and 1A2 in the following sequential steps. Standard reaction mixture (final volume 300 μL) contained […] potassium phosphate buffer (pH 7.4), protein (0.1, 0.25, 0.5, 0.5 and 0.5 mg/mL concentration for CYP3A4, 2D6, 2C9 2C19 and 1A2 respectively) and compound (at eight different concentration levels ranging from […], added as 0.9 μL DMSO solution with a final DMSO concentration of […]). The mixtures were pre-incubated at 37±1° C. for 5 min. The reaction (in duplicate) was initiated by addition of 30 μL of NADPH (10 mM). Reaction was terminated at 10 min by adding 300 μL of acetonitrile. The activity of liver microsomes was confirmed with positive controls i.e., monitoring the hydroxylation of midazolam for CYP 3A4, hydroxylation of bufuralol for CYP 2D6, hydroxylation of diclofenac for CYP 2C9, hydroxylation of omeprazole for CYP2C19 and O-Deethylation for CYP 1A2. The reaction mixtures (obtained from the above studies) were extracted, processed and analyzed by LC-MS [Shimadzu SIL LC series (Kyoto, Japan) was coupled to an API-4000 Mass Spectrometer (MDS Sciex, Toronto, Canada)].

A further data set addresses T2, CYP 2D6 (Homo sapiens, UniProt P10635).
T2 construct: assessed in human liver microsomes (procured from GIBCO Invitrogen); tissue GIBCO Invitrogen; host or cells: human liver microsomes
As to the kind of experiment: CYP inhibition in human liver microsomes (CYP2D6). Format: in vitro ADME. Particulars: hydroxylation of bufuralol, read-out: predicted IC50, CYP 2D6. As for the experimental part: as §1

A short description of data set [1]: Metabolic stability in liver microsomes (mouse). Particulars: mice liver microsomes 0.5 mg/mL, compound 1 μM, NADPH, up to 30 min. Format: in vitro ADME. Here is the method:
Metabolic Stability in Liver Microsomes
Procedure: Potassium phosphate buffer (66.7 mM, pH 7.4) containing mouse or rat or dog or monkey or human liver microsomes (0.5 mg/mL) was pre-incubated separately with compound (1 μM) and positive control (verapamil, 1 μM) in a 37° C. water bath for 5 min. The reactions were initiated by adding 20 μL of 10 mM NADPH. Reactions without NADPH (0 and 30 min) were also incubated to rule out non-NADPH metabolism or chemical instability in the incubation buffer. All reactions were terminated using 200 μL of ice-cold acetonitrile containing internal standard at 0, 5, 15 and 30 min. The vials were centrifuged at 3000 rpm for 15 min. The reaction mixtures (obtained from the above studies) were extracted, processed and analyzed by LC-MS [Shimadzu SIL LC series (Kyoto, Japan) was coupled to an API-4000 Mass Spectrometer (MDS Sciex, Toronto, Canada)] to monitor the disappearance of compound.

Data set [2] is described as follows: Intravenous and oral pharmacokinetics in mice. Format: in vivo, Balb/c mice. Particulars: for Vd: iv, 2 mg/kg; for half-life: read-out: t1/2, β (converted). From the text:
Pharmacokinetics Evaluation of Compound-45: Animal Experiments Details
Institutional Animal Ethical Committee (IAEC) of Jubilant Biosys (IAEC/JDC/2018/158) nominated by CPCSEA (Committee for the Purpose of Control and Supervision of Experiments on Animals) approved the mice pharmacokinetic experiments. Male Balb/c mice (˜6-8 weeks old with body weight range of 22-25 g) were procured from Vivo Biotech, Hyderabad, India. Animals were quarantined in Jubilant Biosys Animal House for a period of 7 days with a 12:12 h light:dark cycles, and prior study the animals were stratified as per body weight. Animals had free access to feed (Altromin Spezialfutter GmbH & Co. KG., Im Seelenkamp 20, D-32791, Lage, Germany) and water ad-libitum.
Intravenous and oral pharmacokinetics study was done at a dose of 2 and 10 mg/kg and at a dose volume of 10 mL/kg. Serial blood samples (200 μL) were collected from retro-orbital plexus at 0.083 (Only for IV), 0.15, 0.5, 1, 2, 4, 8, 10 (only for PO) and 24 h. Blood samples collected in tubes containing K2.EDTA as anticoagulant and centrifuged for 5 min at 14000 rpm in a refrigerated centrifuge (Biofuge, Heraeus, Germany) maintained at 4° C. for plasma separation.
Group I (PO) (22-25 g) received compound-45 at 10 mg/Kg (suspension formulation prepared using 0.5% methylcellulose and Tween-80; dose volume: 10 mL/Kg), whereas group II received IV (24-25 g) received compound-45 intravenously [5% DMSO, 5% Solutol:absolute alcohol (1:1, v/v) and 90% of normal saline; strength: 0.2 mg/mL; dose volume: 10 mL/Kg] at 2.0 mg/Kg dose. Post-dosing serial blood samples (200 μL), sparse sampling was done and at each time point three mice were used for blood sampling) were collected at regular intervals using heparinized capillaries through retro-orbital plexus into polypropylene tubes containing K2.EDTA solution as an anti-coagulant. Animals were allowed to eat feed 2 h post dose of compound-45. Blood concentration-time data of compound-45 was analyzed by non-compartmental method using Phoenix WinNonlin Version 7.0.

The subject of a further data set is plasma proteins. As to the kind of experiment: Plasma protein binding by equilibrium dialysis. The data set is classed as in vitro ADME, mouse. The conditions noted are these: plasma, equilibrium dialysis. As for the experimental part: (§2) To evaluate the ability of compound to bind the plasma proteins, the most common approach of plasma protein binding using equilibrium dialysis was used. Compound was tested at a final concentration of 3 μM in mouse, rat, human or dog plasma. An aliquot of 150 μL plasma containing compound was added in first half (plasma side) of the well of 96-well micro-equilibrium dialysis device. An aliquot of 150 μL of 100 mM sodium phosphate buffer pH 7.4 was added in the second half (buffer side) of the well of 96-well HT equilibrium dialysis device. The plate containing plasma and buffer was equilibrated at 37±1° C. for 4.5 h, with constant shaking at 120 rpm on an orbital shaker. Samples were collected from respective halves after the completion of incubation time. The proteins were precipitated using organic solvents. The samples were subjected to centrifugation and the supernatants were analyzed analysis on LC-MS/MS.

A short description of data set [3]: Plasma protein binding by equilibrium dialysis. Particulars: pH 7.4; mouse plasma, 3 μM, equilibrium dialysis 4.5 h. Format: in vitro ADME, mouse. As for the experimental part:
as §2

Setting [4] is: male, mouse, plasma, Balb C mice, IV dose of 2 mg/Kg.
Setting [5] is: male, mouse, plasma, Balb C mice, oral dose of 10 mg/Kg.

T1 sequence (P11712 whole entry): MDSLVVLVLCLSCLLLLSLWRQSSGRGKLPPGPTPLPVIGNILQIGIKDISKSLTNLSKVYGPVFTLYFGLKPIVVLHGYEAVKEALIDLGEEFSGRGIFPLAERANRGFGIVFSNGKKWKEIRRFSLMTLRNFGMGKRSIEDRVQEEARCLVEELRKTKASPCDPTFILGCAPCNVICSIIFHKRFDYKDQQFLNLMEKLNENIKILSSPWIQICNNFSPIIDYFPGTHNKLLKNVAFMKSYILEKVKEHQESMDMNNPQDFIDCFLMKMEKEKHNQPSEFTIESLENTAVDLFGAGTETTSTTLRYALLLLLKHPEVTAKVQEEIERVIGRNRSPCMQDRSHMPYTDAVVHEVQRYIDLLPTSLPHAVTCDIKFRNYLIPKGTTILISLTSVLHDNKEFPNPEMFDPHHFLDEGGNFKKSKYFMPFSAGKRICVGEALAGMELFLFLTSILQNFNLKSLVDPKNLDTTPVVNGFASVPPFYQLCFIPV
T2 sequence (P10635 whole entry): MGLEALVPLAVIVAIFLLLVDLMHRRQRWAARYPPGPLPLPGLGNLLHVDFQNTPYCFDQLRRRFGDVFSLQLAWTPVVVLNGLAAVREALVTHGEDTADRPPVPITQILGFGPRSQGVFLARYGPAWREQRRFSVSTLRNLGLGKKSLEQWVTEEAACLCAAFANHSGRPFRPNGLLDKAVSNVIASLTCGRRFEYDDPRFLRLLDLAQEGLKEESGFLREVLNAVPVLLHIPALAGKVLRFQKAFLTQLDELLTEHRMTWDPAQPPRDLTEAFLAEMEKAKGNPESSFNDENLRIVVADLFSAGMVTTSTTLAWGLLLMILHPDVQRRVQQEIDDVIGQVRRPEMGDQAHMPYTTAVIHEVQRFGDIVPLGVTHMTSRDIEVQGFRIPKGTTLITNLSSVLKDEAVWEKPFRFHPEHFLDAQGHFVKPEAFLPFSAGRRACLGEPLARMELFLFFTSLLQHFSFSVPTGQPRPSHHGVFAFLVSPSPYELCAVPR

Regarding `COc1nc(OCc2cccc(-c3ccccc3)c2C)nc(OC)c1CN1CCCC[C@H]1C(=O)O` [Compound 45, (S)-1-((4,6-dimethoxy-2-((2-methyl-[1,1′-biphenyl]-3-yl)methoxy)pyrimidin-5-yl)methyl)piperidine-2-carboxylic acid], on CYP 2C9, the IC50 was above 10 µM. The IC50 on CYP 2D6 is above 10 µM. In addition, in data set [1], the “Metabolic stability in liver microsomes” value was above 80%. Moreover, the Tlast in data set [2] (Balb C mice, IV dose of 2 mg/Kg) came out at 8.00 h. The compound also gave a Tlast in data set [2] (Balb C mice, oral dose of 10 mg/Kg) of 24.0 h. Further, in data set [2] (Balb C mice, oral dose of 10 mg/Kg, 10 mg/kg), the “Oral bioavailability (F %)” value is 90.6%. Further, the Vd in data set [2] (male, Balb/c, mouse, plasma, Balb C mice, IV dose of 2 mg/Kg, read-out: Vd) is 0.74 L/kg. For the same compound, the Vd in data set [2] (male, Balb/c, mouse, plasma, Balb C mice, IV dose of 2 mg/Kg, read-out: Vdss) turned out to be 1.2 L/kg. In addition, the bioavailability in data set [2] (male, Balb/c, mouse, plasma, po, 10 mg/kg, Balb C mice, oral dose of 10 mg/Kg, read-out: Oral bioavailability (F %)) is 91%. In data set [2] (setting [4]), this compound showed an AUC(0-inf) of 4920 ng·h/mL, an AUC(0-t) of 4480 ng·h/mL, a Cmax of 2110 ng/mL and a clearance of 6.77 mL/min/kg. Further, the half-life in data set [2] (setting [4]) was 1.27 h. In data set [2] (male, mouse, plasma, Balb C mice, IV dose of 2 mg/Kg, extrapolated, calculated manually using initial 3 time points), the C0 is 2130 ng/mL. In data set [2] (setting [5]), the AUC(0-inf) was found to be 21100 ng·h/mL, the AUC(0-t) came to 20300 ng·h/mL, the Cmax came out at 4840 ng/mL and the time of peak concentration (Tmax) is 0.5 h. The half-life in data set [2] (setting [5]) is 6.32 h. In data set [2] (mice, intravenous), the “clearance as share of hepatic blood flow (HBF)” value is given as 8 % hepatic blood flow and the “volume of distribution relative to total body water (TBW)” value came to 40 times. Besides, the “stability and recovery in plasma” value in the data set with plasma proteins is listed as “good”. The compound further had a fraction unbound at 4.5 h, 3 μM in data set [3] of 0.039.
